Values after ≈ are worked out from the molar mass of the structure shown. Active and inactive are the calls of the source. No cut-off for these calls is given here.
How the values were obtained:
Aspergillus flavus = assay: Antifungal activity against Aspergillus flavus NCIM 539 after 48 hrs by agar cup plate method; assay type: functional; conditions: NCIM 539, 48 h
[1] = test system: Mycobacterium bovis BCG str. ATCC 35743; assay: Antitubercular activity against dormant Mycobacterium bovis BCG ATCC 35743 incubated for 40 mins by XTT Reduction Menadione Assay; assay type: functional
[2] = test system: Mycobacterium tuberculosis; assay: Antitubercular activity against Mycobacterium tuberculosis H37Ra ATCC 25177 at 3 ug/ml incubated for 40 mins by XTT Reduction Menadione Assay; assay type: functional; conditions: H37Ra ATCC 25177, 40 min, read-out: GI
[3] = test system: Mycobacterium tuberculosis; assay: Antitubercular activity against active Mycobacterium tuberculosis H37Ra ATCC 25177 incubated for 40 mins by XTT Reduction Menadione Assay; assay type: functional; conditions: H37Ra ATCC 25177, 40 min
[4] = test system: Mycobacterium tuberculosis; assay: Antitubercular activity against Mycobacterium tuberculosis H37Ra ATCC 25177 at 10 ug/ml incubated for 40 mins by XTT Reduction Menadione Assay; assay type: functional; conditions: H37Ra ATCC 25177, 40 min, read-out: GI
Candida albicans = assay: Antifungal activity against Candida albicans NCIM 3471 after 48 hrs by agar cup plate method; assay type: functional; conditions: NCIM 3471, 48 h
Fusarium oxysporum [5] = assay: Antifungal activity against Fusarium oxysporum NCIM 1332 after 48 hrs by agar cup plate method; assay type: functional; conditions: NCIM 1332, 48 h
[6] = test system: Mycobacterium bovis BCG str. ATCC 35743; assay: Antitubercular activity against dormant Mycobacterium bovis BCG ATCC 35743 at 3 ug/ml incubated for 40 mins by XTT Reduction Menadione Assay; assay type: functional
[7] = Cytotoxicity against human PANC1 cells after 48 hrs by MTT assay; assay type: cell-based, PANC-1; conditions: for GI50 at 48 h: PANC1 cells; for GI90: panc-1, 48 h
Aspergillus niger = assay: Antifungal activity against Aspergillus niger NCIM 1196 after 48 hrs by agar cup plate method; assay type: functional; conditions: NCIM 1196, 48 h
[8] = test system: Mycobacterium tuberculosis; assay: Antitubercular activity against dormant Mycobacterium tuberculosis H37Ra ATCC 25177 incubated for 40 mins by XTT Reduction Menadione Assay; assay type: functional; conditions: H37Ra ATCC 25177, 40 min
[9] = Antitubercular activity against Mycobacterium bovis BCG ATCC 35743 incubated for 40 mins by XTT Reduction Menadione Assay; assay type: functional, Mycobacterium bovis BCG str. ATCC 35743; conditions: Mycobacterium tuberculosis variant bovis BCG, ATCC 35743, 40 min
[10] = test system: Mycobacterium bovis BCG str. ATCC 35743; assay: Antitubercular activity against dormant Mycobacterium bovis BCG ATCC 35743 at 10 ug/ml incubated for 40 mins by XTT Reduction Menadione Assay; assay type: functional
[11] = test system: Mycobacterium bovis BCG str. ATCC 35743; assay: Antitubercular activity against dormant Mycobacterium bovis BCG ATCC 35743 at 30 ug/ml incubated for 40 mins by XTT Reduction Menadione Assay; assay type: functional
[12] = Cytotoxicity against human THP1 cells after 48 hrs by MTT assay; assay type: cell-based, THP-1; conditions: for GI50 at 48 h: THP1 cells; for GI90: thp-1, 48 h
[13] = (§1) Cytotoxicity against human HeLa cells after 48 hrs by MTT assay; assay type: cell-based; conditions: HeLa cells
HeLa = assay: as §1; assay type: cell-based; conditions: hela, 48 h
Cryptococcus neoformans = assay: Antifungal activity against Cryptococcus neoformans NCIM 576 after 48 hrs by agar cup plate method; assay type: functional; conditions: NCIM 576, 48 h
[14] = test system: Mycobacterium tuberculosis; assay: Antitubercular activity against Mycobacterium tuberculosis H37Ra ATCC 25177 at 30 ug/ml incubated for 40 mins by XTT Reduction Menadione Assay; assay type: functional; conditions: H37Ra ATCC 25177, 40 min, read-out: GI
A549 = assay: (§2) Cytotoxicity against human A549 cells after 48 hrs by MTT assay; assay type: cell-based; conditions: a549, 48 h
[15] = as §2; assay type: cell-based; conditions: A549 cells
[16] = test system: Mycobacterium tuberculosis; assay: Antitubercular activity against Mycobacterium tuberculosis H37Ra ATCC 25177 incubated for 40 mins by XTT Reduction Menadione Assay; assay type: functional; conditions: H37Ra ATCC 25177, 40 min
[17] = Selectivity index, ratio of GI50 for human THP1 cells to MIC for Mycobacterium bovis BCG ATCC 35743; assay type: toxicity, cell-based, THP-1; conditions: read-out: Selectivity Index
[18] = Selectivity index, ratio of GI50 for human PANC1 cells to MIC for Mycobacterium bovis BCG ATCC 35743; assay type: toxicity, cell-based, PANC-1; conditions: read-out: Selectivity Index
[19] = Selectivity index, ratio of GI50 for human A549 cells to MIC for Mycobacterium tuberculosis H37Ra ATCC 25177; assay type: toxicity, cell-based; conditions: read-out: Selectivity Index
[20] = Selectivity index, ratio of GI50 for human A549 cells to MIC for Mycobacterium bovis BCG ATCC 35743; assay type: toxicity, cell-based; conditions: read-out: Selectivity Index
[21] = Selectivity index, ratio of GI50 for human PANC1 cells to MIC for Mycobacterium tuberculosis H37Ra ATCC 25177; assay type: toxicity, cell-based, PANC-1; conditions: read-out: Selectivity Index
Fusarium oxysporum [22] = assay: Antifungal activity against Fusarium oxysporum NCIM 1332 up to 200 ug/ml after 48 hrs by agar cup plate method; assay type: functional, organism-based
[23] = Selectivity index, ratio of GI50 for human HeLa cells to MIC for Mycobacterium bovis BCG ATCC 35743; assay type: toxicity, cell-based; conditions: read-out: Selectivity Index
[24] = Selectivity index, ratio of GI50 for human THP1 cells to MIC for Mycobacterium tuberculosis H37Ra ATCC 25177; assay type: toxicity, cell-based, THP-1; conditions: read-out: Selectivity Index
[25] = Selectivity index, ratio of GI50 for human HeLa cells to MIC for Mycobacterium tuberculosis H37Ra ATCC 25177; assay type: toxicity, cell-based; conditions: read-out: Selectivity Index
Pseudomonas fluorescens = assay: Antibacterial activity against Pseudomonas fluorescens after 18 hrs by broth dilution method; assay type: functional
Escherichia coli = assay: Antibacterial activity against Escherichia coli after 18 hrs by broth dilution method; assay type: functional
Bacillus subtilis = assay: Antibacterial activity against Bacillus subtilis after 18 hrs by broth dilution method; assay type: functional
Staphylococcus aureus = assay: Antibacterial activity against Staphylococcus aureus after 18 hrs by broth dilution method; assay type: functional

## Cc1ccc2cc(/C=C3\SC(=S)N(CCC(=O)O)C3=O)c3nnnn3c2c1
Aspergillus flavus
  MIC: 50 µg/mL (≈ 125 µM)
[1]
  IC90: 45.4 µg/mL (≈ 114 µM)
[2]
  inhibition of growth at 3 µg/mL: 16.6%
[3]
  IC90: 45 µg/mL (≈ 113 µM)
[4]
  inhibition of growth at 10 µg/mL: 30%
Candida albicans
  MIC: 25 µg/mL (≈ 62.6 µM)
Fusarium oxysporum [5]
  MIC: 50 µg/mL (≈ 125 µM)
[6]
  growth inhibition (GI): 4.55%
[7]
  GI50 at 48 h: > 100 µg/mL
  GI90: > 100 µg/mL
Aspergillus niger
  MIC: 100 µg/mL (≈ 250 µM)
[8]
  IC90: 42.2 µg/mL (≈ 106 µM)
[9]
  MIC: 45.4 µg/mL (≈ 114 µM)
[10]
  growth inhibition (GI): 12.3%
[11]
  growth inhibition (GI): 41.2%
[12]
  GI50 at 48 h: > 100 µg/mL
  GI90: > 100 µg/mL
[13]
  GI50 at 48 h: > 100 µg/mL
HeLa
  GI90: > 100 µg/mL
Cryptococcus neoformans
  MIC: 50 µg/mL (≈ 125 µM)
[14]
  inhibition of growth at 30 µg/mL: 60.3%
A549
  GI90: > 100 µg/mL
[15]
  GI50 at 48 h: > 100 µg/mL
[16]
  MIC: 42.2 µg/mL (≈ 106 µM)

## COc1ccc2cc(/C=C3\SC(=S)N(CC(=O)O)C3=O)c3nnnn3c2c1
Aspergillus flavus
  MIC: 150 µg/mL (≈ 374 µM)
[2]
  inhibition of growth at 3 µg/mL: 3.59%
[3]
  IC90: 159 µg/mL (≈ 396 µM)
[4]
  inhibition of growth at 10 µg/mL: 13.6%
Candida albicans
  MIC: 100 µg/mL (≈ 249 µM)
[17]
  selectivity ratio: 4.13
[18]
  selectivity ratio: 4.13
[6]
  growth inhibition (GI): 12.7%
[7]
  GI50 at 48 h: > 100 µg/mL
  GI90: > 100 µg/mL
Aspergillus niger
  MIC: 150 µg/mL (≈ 374 µM)
[8]
  IC90: 92.3 µg/mL (≈ 230 µM)
[9]
  MIC: 121 µg/mL (≈ 302 µM)
[19]
  selectivity ratio: 1.1
[10]
  growth inhibition (GI): 37.3%
[11]
  growth inhibition (GI): 25.6%
[20]
  selectivity ratio: 4.13
[12]
  GI50 at 48 h: > 100 µg/mL
  GI90: > 100 µg/mL
[13]
  GI50 at 48 h: > 100 µg/mL
HeLa
  GI90: > 100 µg/mL
[21]
  selectivity ratio: 1.1
Fusarium oxysporum [22]
  MIC: inactive
Cryptococcus neoformans
  MIC: 175 µg/mL (≈ 436 µM)
[23]
  selectivity ratio: 4.13
[24]
  selectivity ratio: 1.1
[14]
  inhibition of growth at 30 µg/mL: 97.2%
A549
  GI90: > 100 µg/mL
[15]
  GI50 at 48 h: > 100 µg/mL
[25]
  selectivity ratio: 1.1
[16]
  MIC: 92.3 µg/mL (≈ 230 µM)

## O=C1NC(=S)S/C1=C\c1cc2ccccc2n2nnnc12
Aspergillus flavus
  MIC: 125 µg/mL (≈ 399 µM)
[2]
  inhibition of growth at 3 µg/mL: 34%
[3]
  IC90: > 250 µg/mL
[4]
  inhibition of growth at 10 µg/mL: 71%
Candida albicans
  MIC: 150 µg/mL (≈ 479 µM)
Fusarium oxysporum [5]
  MIC: 150 µg/mL (≈ 479 µM)
Pseudomonas fluorescens
  MIC: 186 µg/mL (≈ 593 µM)
[6]
  growth inhibition (GI): -8.27%
Escherichia coli
  MIC: 212 µg/mL (≈ 677 µM)
[7]
  GI50 at 48 h: > 100 µg/mL
  GI90: > 100 µg/mL
Aspergillus niger
  MIC: 100 µg/mL (≈ 319 µM)
[8]
  IC90: 162 µg/mL (≈ 515 µM)
[9]
  MIC: 168 µg/mL (≈ 536 µM)
Bacillus subtilis
  MIC: 204 µg/mL (≈ 652 µM)
[10]
  growth inhibition (GI): -5.07%
[11]
  growth inhibition (GI): -15.7%
[12]
  GI50 at 48 h: > 100 µg/mL
  GI90: > 100 µg/mL
[13]
  GI50 at 48 h: > 100 µg/mL
HeLa
  GI90: > 100 µg/mL
Cryptococcus neoformans
  MIC: 75 µg/mL (≈ 239 µM)
Staphylococcus aureus
  MIC: 153 µg/mL (≈ 487 µM)
[14]
  inhibition of growth at 30 µg/mL: 51.8%
A549
  GI90: > 100 µg/mL
[15]
  GI50 at 48 h: 79.2 µg/mL (≈ 253 µM)
[16]
  MIC: 162 µg/mL (≈ 515 µM)

Reference: ChEMBL document CHEMBL3792317, “Novel tetrazoloquinoline-rhodanine conjugates: Highly efficient synthesis and biological evaluation” (Bioorg Med Chem Lett, 2016)
